Series [1] deals with Class I HDAC. In words: HDAC subtype selectivity reporter gene assay (P21 reporter, HeLa cells). The class given is cell-based. The settings on record: Homo sapiens, read-out: Class I HDAC (P21 reporter assay) Fold Induction at 10µM. The protocol: Different HDAC subtypes can bind with different transcriptional factors and involve in expression regulation of various genes. Suitable regulation elements for transcriptional factors are selected to construct reporter genes, which can be used to evaluate the selective inhibition of inhibors on HDAC subtypes. Briefly, HeLa cells were seeded in 96-well plates the day before transfection to give a confluence of 50-80% when transfection. Cells were transfected with one of reporter gene plasmid containing a p21-promoter sequence or response element upstream of a luciferase gene construct using FuGene6 transfection reagent according to the manufacturer's instruction (Roche). For normalizing the transfection efficiency, a GFP expression plasmid was cotransfected. After 24 hours compounds or the vehicle control (DMSO) were added. 24 hours later the cells were harvested and lysed, and the amount of the luciferase was evaluated using luciferase assay kits (Promega) according to the manufacturer's instructions.
(A reporter such as luciferase makes a cellular process visible.)

The subject of series [2] is Bel-7402. In words: Tumor cell proliferation (MTS), Bel-7402. The class given is cell-based. The settings on record: Homo sapiens; Bel-7402, 72 hours; read-out: Gl50 µM in Bel-7402. The protocol:
(§1) Tumor cells were trypsinized and plated into 96-well plates at 3,000 per well and incubated in complete medium with 10% FBS for 24 hours. Compounds to be tested and vehicle control were added, and the final concentration of compound is in the range of 100 nmol/L to 100 µmol/L. The compounds were incubated for 72 hours in complete medium. The MTS reagent (Promega) was added according to the instruction, incubated for 2 hours at 37°C in CO2 incubator. Then absorbance at 490nm is read using an ELISA plate reader.

Series [3] concerns A-498. In words: Tumor cell proliferation (MTS), A-498. The class given is cell-based. The settings on record: Homo sapiens, A498; A-498, 72 hours; read-out: Gl50 µM in A-498. The protocol:
as §1

In series [4] the test system is HUVEC cells. Put plainly: VEGF dependent cell proliferation (MTS). It is filed as cell-based. The settings on record: Homo sapiens, VEGF 165 (50ng/ml), 72 hours, serum-free medium, read-out: Gl50 nM (VEGF ligand-dependent cell proliferation). The protocol: HUVEC cells were plated into 96-well plates at 6,000 per well and after 24 hours incubated with serum-free medium for 2 hours. Compounds to be tested and VEGF 165 (50ng/ml) were added and incubated for 72 hours in serum-free medium. The effects on cell proliferation were determined by MTS method (Promega) according to the instruction. Incubation was performed for 2 hours at 37°C in CO2 incubator, and absorbance at 490nm was determined using an ELISA plate reader.

The test system of series [5] is MCF-7. Put plainly: Tumor cell proliferation (MTS), MCF-7. It is filed as cell-based. The settings on record: Homo sapiens, MCF7; MCF-7, 72 hours; read-out: Gl50 µM in MCF-7. Here is the method:
as §1

The test system of series [6] is total HDAC enzyme. Put plainly: In vitro total HDAC enzyme activity (HDAC Fluorimetric Assay/Drug Discovery Kit, HeLa cell nuclear extract). The class given is biochemical. The protocol:
The in vitro total HDAC enzyme activity was determined by HDAC Fluorimetric Assay/Drug Discovery Kit (BIOMOL) according to manufacture's instruction. The principle of the experiment is as follows: under the action of histone deacetylase (in the experiment, HeLa cell nuclear extract, which was rich in a variety of subtypes of HDAC, was used), an acetyl group is removed from a special substrate Fluor de Lys, thus the free amino is exposed. Upon Developer is added, the substrate will produce fluorescence. For the fluorescence, excitation wavelength is 360nm, and emission wavelength is 460nm. More fully the substrate deacetylated, more higher the fluorescence induced. In the absence of inhibitors, the fluorescence value is taken as the control; when inhibitor is existed, fluorescence value induced will be reduced, while in the case no enzyme is existed (corresponding to the completely inhibition of enzyme activity) the fluorescence value is blank. Generally, after suppression the fluorescence values will be between the control and blank. When analysis is made, blank will be used as 0, and the control will be used as 1. Smaller value means higher inhibitory activity. 1. Add Assay buffer, diluted trichostatin A and test inhibitor to appropriate wells of the microtiter plate. Following table lists the amounts used for each regent of various assay types.
2. Add diluted HeLa nucleoprotein extract to all wells except those that are marked as "blank". 3. Allow diluted Fluor de Lys™ Substrate and the samples in the microtiter plate to equilibrate to 25°C. 4. Initiate HDAC reactions by adding diluted substrate (25 µl) to each well and mixing thoroughly. 5. Allow reactions to proceed for 30 minutes and then stop them by addition of Fluor de Lys™ Developer (50 µl). Incubate plate at room temperature (25°C) for 10-15 min. 6. Read fluorescence of samples on a microtiter-plate reading fluorimeter at a excitation wavelength of 369 nm and a emitted wavelength of 451 nm.

In series [7] the target is T1, human PDGFRβ (Homo sapiens, UniProt P09619).
T1 construct: expressed in transfected cells
In words: PDGF dependent cell proliferation (MTS). The class given is cell-based. The protocol: NIH-3T3 mouse fibroblasts cell line engineered to stably express human PDGFRβ was constructed and used to evaluate PDGF dependent cell proliferation. PDGFRβ NIH-3T3 cells were plated into 96-well plates at 5,000 per well and incubated overnight with serum-free medium after 24 hours. Compounds to be tested and PDGF BB (50ng/ml) were added and incubated for 72 hours in serum-free medium. The effects on proliferation were determined by MTS method (Promega) according to the instruction. Incubation was performed for 2 hours at 37°C in CO2 incubator, and absorbance at 490nm was measured using an ELISA plate reader.

In series [8] the test system is HCT-8. In words: Tumor cell proliferation (MTS), HCT-8. It is filed as cell-based. The settings on record: Homo sapiens; HCT-8, 72 hours; read-out: Gl50 µM in HCT-8. The protocol: as §1
For series [9], the system named is A549. In words: Tumor cell proliferation (MTS), A549. It is filed as cell-based. The settings on record: Homo sapiens; A549, 72 hours; read-out: Gl50 µM in A549. Here is the method: as §1
Series [10] has as its system human SSMC7721 liver cancer. In words: Nude mice tumor transplanted from human SSMC7721 liver cancer (Example 56). The settings on record: for TGI (%): tumor growth inhibition. It is filed as in vivo. The protocol: Female nu/nu mice of 18∼20g were fed by normal diet for 3 days. Then the cultured SSMC7721 human liver cancer cells were implanted into the armpit of 50 mice. […] Each group had 8 mice. One group was treated with vehicle. One group was treated with Sutent, the positive control drug. Two groups were treated with compound 33 at different concentrations. The other two groups were treated with compound 37 at different concentrations. Each group was dosed orally once a day for 30 days. […] The tumor growth inhibition of each group was calculated using the following formula: {[(the average tumor weight of control group)-(the average tumor weight of test group)]/(the average tumor weight of control group)} × 100%. [formula] The experimental results are shown in Table 10 and Figure 6. Table10

The test system of series [11] is human HCT-8 colon cancer. In words: Nude mice tumor transplanted from human HCT-8 colon cancer (Example 55). It is filed as in vivo. The settings on record: for TGI (%): tumor growth inhibition. The protocol:
Female nu/nu mice of 18∼20g were fed by normal diet for 3 days. Then the cultured HCT-8 human colon cancer cells were implanted into the armpit of 50 mice. […] One group was treated with vehicle. One group was treated with Sutent, the positive control drug. Two groups were treated with compound 33 at different concentrations. The other two groups were treated with compound 37 at different concentrations. Compound 33 was administered twice a day with an interval of 6 hours. For other groups, administration was performed once a day. Each group was dosed orally for 20 days. […] The tumor growth inhibition of each group was calculated using the following formula: {[(the average tumor weight of control group)-(the average tumor weight of test group)]/(the average tumor weight of control group)} × 100%. [formula] The experimental results are shown in Table 9 and Figure 5.

Where [12] appears, read: read-out: Gl50 nM (PDGF ligand-dependent cell proliferation); PDGFRβ NIH-3T3 cells, PDGF BB (50ng/ml), 72 hours, serum-free medium.
The mark [13] stands for this setting: PDGFRβ NIH-3T3 cells, PDGF BB (50ng/ml), 72 hours, serum-free medium; read-out: Gl50 nM (PDGF ligand-dependent cell proliferation).
Setting [14] is: 30 mg/kg orally once a day for 30 days.
Setting [15] is: 60 mg/kg orally once a day for 30 days.
[16] abbreviates: 30 mg/kg orally once a day for 20 days.
Setting [17] is: 60 mg/kg orally once a day for 20 days.

pIC50: −log10 of the molar value. Where two headings read alike, the source gives them in different places.

T1 sequence (P09619 33-1106): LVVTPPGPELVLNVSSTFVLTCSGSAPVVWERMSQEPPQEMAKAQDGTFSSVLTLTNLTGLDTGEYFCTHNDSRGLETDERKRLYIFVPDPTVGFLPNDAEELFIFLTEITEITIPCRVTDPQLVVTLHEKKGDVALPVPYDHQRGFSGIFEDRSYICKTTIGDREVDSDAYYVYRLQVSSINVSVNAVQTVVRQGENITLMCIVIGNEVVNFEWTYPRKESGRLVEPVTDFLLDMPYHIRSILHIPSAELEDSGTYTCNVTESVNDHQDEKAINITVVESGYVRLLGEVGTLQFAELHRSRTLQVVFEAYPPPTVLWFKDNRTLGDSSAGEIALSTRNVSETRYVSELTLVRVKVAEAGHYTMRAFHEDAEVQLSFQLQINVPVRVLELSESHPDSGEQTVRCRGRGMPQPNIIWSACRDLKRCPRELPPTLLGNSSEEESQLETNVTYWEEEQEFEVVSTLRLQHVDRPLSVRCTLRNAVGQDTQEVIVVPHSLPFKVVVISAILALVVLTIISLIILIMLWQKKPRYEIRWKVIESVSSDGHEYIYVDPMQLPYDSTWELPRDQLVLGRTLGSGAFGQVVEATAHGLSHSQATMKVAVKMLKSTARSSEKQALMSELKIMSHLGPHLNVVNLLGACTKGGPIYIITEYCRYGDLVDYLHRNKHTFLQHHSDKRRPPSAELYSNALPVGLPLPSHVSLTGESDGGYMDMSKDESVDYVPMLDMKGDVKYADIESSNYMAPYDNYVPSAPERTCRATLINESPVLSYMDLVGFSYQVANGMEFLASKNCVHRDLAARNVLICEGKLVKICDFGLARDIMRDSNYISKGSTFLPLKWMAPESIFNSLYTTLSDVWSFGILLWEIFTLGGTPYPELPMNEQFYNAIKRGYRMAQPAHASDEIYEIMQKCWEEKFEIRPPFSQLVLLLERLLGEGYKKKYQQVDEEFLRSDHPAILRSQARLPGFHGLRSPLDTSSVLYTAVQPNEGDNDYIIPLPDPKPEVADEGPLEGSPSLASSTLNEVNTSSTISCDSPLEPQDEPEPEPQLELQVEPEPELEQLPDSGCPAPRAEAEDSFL

In the case of `COc1cc2ncnc(Oc3ccc4c(C(=O)NCc5ccc(C(=O)Nc6ccccc6N)cn5)cccc4c3)c2cc1OC` [Compound 25], the fold induction at 10 µM in series [1] (HeLa, 24 h) stood at 12.1. Further, the pIC50 in series [2] is 4.52; in series [3] it was 4.83; in series [4] it was 7.89; in series [5], 5.21; in [7] (setting [12]), 7.16; in series [8] it was 5.31. In addition, in [9], the pIC50 was 4.52. For the same molecule, in series [6], the “% inhibition of total HDAC enzyme activity at 30µM” value (shortened to “% inhibition”) worked out at 47.9%.
Take `COc1cc2ncnc(Oc3ccc4c(C(=O)Nc5ccc(F)cc5N)cccc4c3)c2cc1OC` [Compound 17, N-(2-amino-4-fluorophenyl)-6-(6,7-dimethoxyquinazolin-4-yloxy)-1-naphthamide]: the fold induction at 10 µM in series [1] (10µM, HeLa cells, 24 hours) amounted to 1.1. The pIC50 was 4.52 in series [2]; 4.52 in series [3]; 8.52 in series [4]; 4.52 in series [5]; 7.40 in series [7] (setting [13]); 5.52 in series [8]. In series [9], the pIC50 was 4.52. In addition, the “% inhibition” value in [6] worked out at 22.5%.
Regarding `COc1cc2ncnc(Oc3ccc4c(C(=O)Nc5ccccc5N)cccc4c3)c2cc1OC` [Compound 16, N-(2-aminophenyl)-6-(6,7-dimethoxyquinazolin-4-yloxy)-1-naphthamide], the fold induction at 10 µM in series [1] (10µM, HeLa cells, 24 hours) came to 1.3. Besides, the pIC50 in [2] was 4.52; in series [3], 4.52; in [4], 8.52; in series [5], 4.52; in series [7] (setting [13]), 7.32; in [8], 4.91. In series [9], the pIC50 is 4.52. Further, the “% inhibition” value in [6] is listed as 8.6%.
`COc1cc2nccc(Oc3ccc4c(C(=O)NCc5ccc(C(=O)Nc6ccccc6N)cn5)cccc4c3)c2cc1OC` [Compound 38]: in [1] (HeLa, 24 h), the fold induction at 10 µM came out at 3.1. The pIC50 in series [2] is 4.52; in series [3], 5.16; in series [4] it was 7.60; in series [5], 5.03; in series [7] (setting [12]), 7.13; in [8], 5.10. Also, in [9], the pIC50 is 4.52. Moreover, in series [6], the “% inhibition” value is 39.3%.
In the case of `COc1cc2nccc(Oc3ccc4c(C(=O)Nc5ccc(F)cc5N)cccc4c3)c2cc1OC` [Compound 36, N-(2-amino-4-fluorophenyl)-6-(6,7-dimethoxyquinolin-4-yloxy)-1-naphthamide], the fold induction at 10 µM in [1] (10µM, HeLa cells, 24 hours) worked out at 1.2. Moreover, the pIC50 in [2] is 4.92; in series [3], 5.38; in series [4], 8.70; in [5] it was 5.05; in series [7] (setting [13]), 8.52; in series [8] it was 5.39. In addition, in series [9], the pIC50 was 5.13. Moreover, the “% inhibition” value in [6] is 14.4%.
For `COc1cc2nccc(Oc3ccc4c(C(=O)NCc5ccc(C(=O)Nc6ccccc6N)cc5)cccc4c3)c2cc1OC` [Compound 37, N-(4-((2-aminophenyl)carbamoyl)benzyl)-6-(6,7-dimethoxyquinolin-4-yloxy)-1-naphthamide], the “Tumor weight” value in series [10] (setting [14]) is 1.45 ± 0.58 g; in series [10] (setting [15]) it was 1.28 ± 0.51 g; in [11] (setting [16]), 3.89 ± 1.19 g; in series [11] (setting [17]), 3.36 ± 0.80 g. Further, the “Body weight (g) end” value in series [10] (setting [14]) stood at 25.3 ± 0.9 g; in [10] (setting [15]), 24.3 ± 1.1 g; in series [11] (setting [16]), 23.6 ± 2.2 g; in series [11] (setting [17]), 24.1 ± 2.1 g. Also, the “Body weight (g) start” value in series [10] (setting [14]) stood at 20.7 ± 1.2 g; in [10] (setting [15]) it was 21.4 ± 0.6 g; in series [11] (setting [16]) it was 20.6 ± 0.8 g; in series [11] (setting [17]), 20.8 ± 0.8 g. The “TGI (%)” value in [10] (setting [14]) came out at 35.6%; in series [10] (setting [15]), 43.3%; in [11] (setting [16]), 36.5%; in series [11] (setting [17]), 45.1%. The fold induction at 10 µM in series [1] (10µM, HeLa cells, 24 hours) was determined as 3. For the same molecule, the pIC50 in [2] is 4.52; in [3] it was 4.52; in series [4], 8.40; in [5], 4.52; in series [7] (setting [13]), 6.80; in series [8], 4.52. Besides, the pIC50 in [9] was 4.52. Moreover, in series [6], the “% inhibition” value is reported as 35.9%.

Values taken from patent EP2439195B1, “NAPHTHALENE CARBOXAMIDE DERIVATIVES AS INHIBITORS OF PROTEIN KINASE AND HISTONE DEACETYLASE, PREPARATION METHODS AND USES THEREOF” (Shenzhen Chipscreen Biosciences, Ltd., priority 2009, dated 2010).
